The source of these data is patent US20220054501A1, “[…] ESTROGEN-RECEPTOR b (ER.beta) POSITIVE BREAST TUMOR” (DCIC Biopharmaceutical Limited, priority 2018, published 2022).

Each structure is given as a SMILES string.

The subject of series [1] is ERβ positive breast cancer. The series is described as follows: treatment success of Anastrozol and Letrozol compared with the topical prodrug (Example 2). It is filed as in vivo, human. The following applies: for treatment success: patients, treated according to current treatment guidelines. The method, then:
Studies were carried out on patients suffering from ERβ positive breast cancer.
First, the patients were treated with non-steroidal aromatase-inhibitors Anastrozol or Letrozol, the treatment was carried out according to the respective current treatment guidelines.
Then, said patients were treated with the pharmaceutical composition comprising the prodrug according to the present invention, that is, the prodrug (4-OHA) was applied topically to the affected breast.

Series [2] in a line: skin penetration on topical administration. The note with it: topical administration (ointment, lotion or cream). The text has this:
After topical administration, the compound(s) penetrate through the skin and concentrate in the fatty tissue.

The test system of series [3] is ERβ positive breast cancer tumors. The series is described as follows: shrinking of breast tumor tissue, topical prodrug (Example 1.1). It is filed as in vivo, human. The following applies: patients, tumors max 2 cm, after three weeks of treatment. The procedure: 1.1 Patients that were diagnosed (by mammography) with ERβ positive breast cancer tumors with a maximum size of 2 cm were treated with the pharmaceutical composition comprising the prodrug of the present invention: The prodrug was applied topically to the affected breast.

Series [4] concerns ER positive breast cancer. The series is described as follows: shrinking of breast tumor, 2.5 wt.-% 4-OHA crème (Example 1.2). It is filed as in vivo, human. The note with it: 4 ml crème with 2.5 wt.-% 4-OHA, 2 times/day, after 3-5 weeks. The method, then: 1.2 Application of 4 ml of a crème (2 times/day) comprising 2.5 wt.-% 4-OHA to a breast suffering from an ER positive breast cancer.

The next series has as its target ERβ (Homo sapiens, UniProt Q92731). The series is described as follows: binding affinity towards ERβ compared with ERα. The following applies: fold higher for ERβ.
Another series concerns MDA-MB-231 cells. The series is described as follows: inhibition of proliferation of MDA MB-231 cells. The format is cell-based, human. The procedure:
MDA-MB-231 cell line is a highly aggressive, invasive, and poorly differentiated epithelial human breast cancer cell line. It lacks estrogen receptor a (ERα) and progesterone receptor (PR) expression, as well as HER2 (human epidermal growth factor 2) amplification. MDA-MB-231 cell line is ERβ positive. It is a model cell line for triple negative breast cancer (TNBC) being ERβ positive.
Two different concentrations of MDA-MB-231 cells (1.0e3 and 2.5e3) were incubated with increasing concentrations of 4-OHT (K+; 0.5 μM; 1 μM; 5 μm; 10 μM; 20 μM). The cells were incubated for 6 days (d). Then, absorption at 492 nm was measured.

Sequence of ERβ (Q92731 whole entry): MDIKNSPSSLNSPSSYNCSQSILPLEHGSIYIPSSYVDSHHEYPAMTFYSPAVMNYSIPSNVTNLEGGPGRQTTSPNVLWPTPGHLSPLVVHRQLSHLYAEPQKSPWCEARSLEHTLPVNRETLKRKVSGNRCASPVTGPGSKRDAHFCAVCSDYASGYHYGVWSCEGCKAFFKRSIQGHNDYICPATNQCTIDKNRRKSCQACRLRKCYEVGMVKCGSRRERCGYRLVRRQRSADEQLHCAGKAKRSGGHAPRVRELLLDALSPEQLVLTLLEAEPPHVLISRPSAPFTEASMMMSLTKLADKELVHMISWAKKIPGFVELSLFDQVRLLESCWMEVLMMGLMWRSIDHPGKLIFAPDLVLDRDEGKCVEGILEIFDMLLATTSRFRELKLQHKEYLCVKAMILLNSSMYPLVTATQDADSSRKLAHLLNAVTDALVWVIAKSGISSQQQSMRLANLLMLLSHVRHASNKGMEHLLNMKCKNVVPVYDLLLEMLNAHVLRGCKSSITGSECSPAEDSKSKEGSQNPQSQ

Consider `CC(C)(C#N)c1cc(Cn2cncn2)cc(C(C)(C)C#N)c1` [Anastrozol], for which the treatment success result in series [1] was “not successful”.
Turning to `C[C@]12CCC(=O)C(O)=C1CC[C@@H]1[C@@H]2CC[C@]2(C)C(=O)CC[C@@H]12` [4-OHA, 4-hydroxyandrost-4-ene-3,17-dione], the skin penetration capabilities result in series [2] is listed as “excellent skin penetration capabilities”. In series [3], the tumor size result is “reduction in tumor size”. Moreover, the “size of the tumor” value in series [4] is “significantly decreased”. The “patients with stabilisation of the disease over 6 months” value in series [1] (topical, after unsuccessful Anastrozol or Letrozol treatment) came out at 50%.
As to `C[C@]12CC[C@H]3[C@@H](CCC4C(O)C(O)CC[C@@]43C)[C@@H]1CC[C@@H]2O` (stereo partly drawn) [4-OHBA, 4-hydroxy-5-alpha-androstane-3-beta,17beta-diol], the “affinity towards ERβ relative to affinity towards ERα” value at ERβ is reported as “about 10 times”.
In the case of `N#Cc1ccc(C(c2ccc(C#N)cc2)n2cncn2)cc1` [Letrozol], the treatment success entry in series [1] is listed as “not successful”.
For orientation: inhibition means the relative decrease from the control value, in per cent. As for `C[C@]12CC[C@H]3[C@@H](CCC4=C(O)C(=O)CC[C@@]43C)[C@@H]1CC[C@@H]2O` [4-OHT, 4-hydroxytestosterone], the “end concentration from which significant inhibition of cell growth takes place” value in the series with MDA-MB-231 cells (6 d incubation, absorption at 492 nm) was “at least 5 μM/L”. Further, the inhibition at 5 µM in the series with MDA-MB-231 cells (Homo sapiens, MDA-MB-231, 144 h, 5 μM/L 4-OHT, cell concentration 1.0e3, 6 d, read-out: inhibition of cell growth) was roughly 50%. Also, the inhibition at 20 µM with MDA-MB-231 cells (Homo sapiens, MDA-MB-231, 144 h, 20 μM/L 4-OHT, 6 d, read-out: inhibition of cell growth) lay within 75 to 80%.
